Like-named read-outs stand apart in the source and are kept apart here. Starred links: 1 amine or outer side, 2 acyl side, 3 side chain; linkers in the order of their positions; H or OH if unused. Non-standard residues stand in square brackets, D forms with d. Residues, ends and D or L forms follow the SMILES beside them. NMePhe(3-(3-pyridyl)) = CN[C@@H](Cc1cccc(-c2cccnc2)c1)C(=O)O; NMePhe(3-Ph) = CN[C@@H](Cc1cccc(-c2ccccc2)c1)C(=O)O; X2 = CN([C@@H](Cc1cccc(B(O)O)c1)C(=O)[*:2])[*:1]; NMePhe(3-Br) = CN[C@@H](Cc1cccc(Br)c1)C(=O)O; Phe(3-Br) = N[C@@H](Cc1cccc(Br)c1)C(=O)O; X1 = CC[C@@H](C)[C@@H](O[*:1])C(=O)[*:2]; NMeVal(β-OH) = CN[C@H](C(=O)O)C(C)(C)O; aIle = CC[C@@H](C)[C@H](N)C(=O)O; NMeV = CN[C@H](C(=O)O)C(C)C
How the values were obtained:
C. albicans = assay: MIC, broth dilution CLSI M38-A2 with YPD medium (Table 2); format: cell-based
Method: (§1) The activities of several exemplary compounds of the present invention were assayed according to the CLSI standard M38-A2 titled “Reference Method for Broth Dilution Antifungal Susceptibility Testing of Filamentous Fungi”. However, the RPMI-1640 broth is substituted for a YPD medium formulated according to the following steps: […]
(§2) 1. Dissolve 10 g of BactoYeast extract in 500 ml water
(§3) 2. Dissolve 20 g of BactoPeptone in the above solution
(§4) 3. Dissolve 20 g Dextrose in the above solution* *Ordinary table sugar (sucrose) substituted for dextrose routinely.
(§5) 4. q.s. to 1000 ml with water

Candida albicans SC5413 = assay: Candidiasis model in immunosuppressed mice, mortality; format: in vivo
Method: Referring to FIG. 6, Mice, immunosuppressed with cyclophosphamide, were inoculated with 8 log 10 CFU Candida albicans SC5413 and dosed (following inoculation) with 3-pyridyl-mPhe^4-AbA (or a control antibiotic) orally, BID, for four consecutive days. Efficacy was determined by enumerating mortality.

Aspergilli, A. fumigatus = settings: most Aspergilli, most notably A. fumigatus; cited from earlier work
[1] = Pharmacokinetic study in mice, oral gavage, plasma by HPLC-MS; format: in vivo; settings: single 200 mg/kg oral gavage
Method: Referring to FIG. 5, mice were administered a single 200 mg/kg bolus dose of 3-pyridyl-mPhe^4-AbA (diamonds) or AbA (squares), by oral gavage. Blood was collected a timed intervals after administration of the drug and analyzed for compound content by HPLC-MS.

[2] = system: Cryptococcus species, including C. neoformans; settings: most Cryptococcus species; cited from earlier work
[3] = animals and humans; cited from earlier work
[4] = system: Candida species, including C. albicans; settings: virtually all Candida species; cited from earlier work
[5] = system: Trychophyton mentagrophytes 5278 (ATCC MYA-4439); assay: MIC, antifungal spectrum (Table 3); format: cell-based; settings: at 96 hrs
Method: as §1, §2, §3, §4, §5

[6] = system: Sporothrix schenkii 892 (ATCC14284); assay: MIC, antifungal spectrum (Table 3); format: cell-based; settings: at 96 hrs
Method: as §1, §2, §3, §4, §5

[7] = system: Trychophyton rubrum 5279 (ATCC MYA-4438); assay: MIC, antifungal spectrum (Table 3); format: cell-based; settings: at 72 hrs
Method: as §1, §2, §3, §4, §5

[8] = system: Fusarium oxysporum 0893 (ATCC48112); assay: MIC, antifungal spectrum (Table 3); format: cell-based; settings: at 96 hr
Method: as §1, §2, §3, §4, §5

A. fumigatus = assay: MIC, broth dilution CLSI M38-A2 with YPD medium (Table 2); format: cell-based; settings: compound purity ~85%
Method: as §1, §2, §3, §4, §5

[9] = YPD medium, compound purity ~85%

Compound: CCC(C)[C@@H]1NC(=O)[C@@H]2CCCN2C(=O)[C@H](Cc2ccccc2)N(C)C(=O)[C@H](Cc2ccccc2)NC(=O)[C@H](C(C)C)N(C)C(=O)[C@@H](C(C)CC)OC(=O)C(C(C)(C)O)N(C)C(=O)[C@H](CC(C)C)NC(=O)[C@H](C(C)C)N(C)C1=O (stereo in doubt) [AbA (native), Aureobasidin A]
- MIC for C. albicans (C. albicans; [9]): <0.05 µg/mL
- ED50 (Candida albicans SC5413; cyclophosphamide-immunosuppressed mice, oral, BID, four consecutive days, mortality): about 25 mg/kg
- activity towards Aspergilli (Aspergilli, A. fumigatus): little activity
- plasma concentration trend at the end of the 12 hour experiment [1]: decreasing
- efficacy against Cryptococcus species [2]: efficacious
- tolerability [3]: very well tolerated
- efficacy against Candida species [4]: very efficacious

Compound: CC[C@@H](C)[C@@H]1NC(=O)[C@@H]2CCCN2C(=O)[C@H](Cc2cccc(-c3cccnc3)c2)N(C)C(=O)[C@H](Cc2ccccc2)NC(=O)[C@H](C(C)C)N(C)C(=O)[C@@H]([C@H](C)CC)OC(=O)[C@H](C(C)(C)O)N(C)C(=O)[C@H](CC(C)C)NC(=O)[C@H](C(C)C)N(C)C1=O [3-pyridyl-mPhe^4-AbA] (cyclo([X1][NMeV]F[NMePhe(3-(3-pyridyl))]P[aIle][NMeV]L[NMeVal(β-OH)]))
- MIC [5]: 0.5 at 96 hrs μg/ml
- MIC [6]: >64 at 96 hrs μg/ml
- MIC [7]: 2 at 72 hrs μg/ml
- MIC [8]: >64 at 96 hr μg/ml
- MIC for C. albicans (C. albicans): <0.05 µg/mL
- ED50 of native AbA relative to that of 3-pyridyl-mPhe^4-AbA (Candida albicans SC5413; Candidiasis model, mice, oral BID four days): almost four times higher
- bioavailability and/or clearance as compared to the native drug [1]: enhanced bioavailability and/or a slower clearance
- plasma concentration trend at the end of the 12 hour experiment [1]: still be increasing
- plasma concentrations compared with the same dose of native AbA ([1]; same vehicle): significantly higher plasma concentrations

Compound: CC[C@@H](C)[C@@H]1NC(=O)[C@@H]2CCCN2C(=O)[C@H](Cc2cccc(B(O)O)c2)N(C)C(=O)[C@H](Cc2ccccc2)NC(=O)[C@H](C(C)C)N(C)C(=O)[C@@H]([C@H](C)CC)OC(=O)[C@H](C(C)(C)O)N(C)C(=O)[C@H](CC(C)C)NC(=O)[C@H](C(C)C)N(C)C1=O [B(OH)2-mPhe^4-AbA] (cyclo([X1][NMeV]F[X2]P[aIle][NMeV]L[NMeVal(β-OH)]))
- MIC for C. albicans (C. albicans): <0.05 µg/mL

Compound: CC[C@@H](C)[C@@H]1NC(=O)[C@@H]2CCCN2C(=O)[C@H](Cc2cccc(Br)c2)N(C)C(=O)[C@H](Cc2cccc(Br)c2)NC(=O)[C@H](C(C)C)N(C)C(=O)[C@@H]([C@H](C)CC)OC(=O)[C@H](C(C)(C)O)N(C)C(=O)[C@H](CC(C)C)NC(=O)[C@H](C(C)C)N(C)C1=O [Br-Phe^3-Br-mPhe^4-AbA] (cyclo([X1][NMeV][Phe(3-Br)][NMePhe(3-Br)]P[aIle][NMeV]L[NMeVal(β-OH)]))
- MIC for C. albicans (C. albicans): 5 µg/mL

Compound: CC[C@@H](C)[C@@H]1NC(=O)[C@@H]2CCCN2C(=O)[C@H](Cc2cccc(-c3ccccc3)c2)N(C)C(=O)[C@H](Cc2ccccc2)NC(=O)[C@H](C(C)C)N(C)C(=O)[C@@H]([C@H](C)CC)OC(=O)[C@H](C(C)(C)O)N(C)C(=O)[C@H](CC(C)C)NC(=O)[C@H](C(C)C)N(C)C1=O [Phenyl-mPhe^4-AbA] (cyclo([X1][NMeV]F[NMePhe(3-Ph)]P[aIle][NMeV]L[NMeVal(β-OH)]))
- MIC for C. albicans (C. albicans): <0.05 µg/mL

Compound: Boronate-mPhe^4-AbA
- MIC for A. fumigatus (A. fumigatus): 10 µg/mL
- MIC for C. albicans (C. albicans; [9]): <0.5 µg/mL

Compound: Br-mPhe^4-AbA
- MIC for A. fumigatus (A. fumigatus): 2.5 µg/mL
- MIC for C. albicans (C. albicans; [9]): 0.031 µg/mL

Compound: I-mPhe^4-AbA
- MIC for A. fumigatus (A. fumigatus): >5 µg/mL
- MIC for C. albicans (C. albicans; [9]): 2.5 µg/mL

Compound: MeO-φ-mPhe^4-AbA
- MIC for C. albicans (C. albicans; [9]): 5 µg/mL

From US8906848B2, “Aureobasidin derivatives and methods of synthesis” (priority 2011, dated 2014)
